Reference: patent publication US20050053912A1, “Methods for inducing reversible stasis” (priority 2001, published 2005)

Tests used:
zebrafish embryos [1] = assay: Viability of zebrafish embryos treated with compound, in anoxia versus normoxia; format: in vivo; details: approx. 8 hpf embryos
Source text: Oxygen Deprivation Environments. For all studies an anaerobic bio-bag type A environmental chamber was used according to manufacturer's instructions (Becton Dickinson). This method contains a resazurin indicator that allows one to determine when the anoxic environment is established. A second method was used to verify suspended animation results. This method involved use of a chamber perfused with 100% N2 gas (Airgas Inc.) and monitored for oxygen using a FYRITE O2 Gas Analyzer (Bacharach, Pittsburgh, Pa.) and Resazurin Indicator (Becton Dickinson). By using these anoxia-producing methods, it took approximately two hours for the oxygen concentration to reach zero. Development of embryos could continue for another 1-2.5 hours, depending on the amount of water present.
This example describes the identification of a compound that causes fish embryos subjected to an anoxic/hypoxic environment to die. In this example, fish were maintained at 28° C. in fish water or embryo media (Westerfield, 1995). Briefly, zebrafish embryos at approximately 8 hpf were pre-treated with Pronase to remove the chorion. Approximately 10 pre-treated fish were placed in each 30 mm petrie dishes in either fish water or embryo media. […] After 24 hours in anoxia, the embryos were returned to room air and viability was assessed visually. […]

zebrafish embryos [2] = assay: Induction of and exit from stasis in zebrafish embryos under normoxic conditions; format: in vivo
Procedure: This example describes the identification of a compound that causes fish embryos to enter stasis. In this example, fish were maintained at 28° C. in fish water or embryo media. Briefly, zebrafish embryos at approximately 8 hpf were pre-treated with Pronase to remove the chorion. Approximately 10 pre-treated fish were placed in 30 mm petrie dishes in either fish water or embryo media. Dilutions of Rotenone (Sigma, St. Louis, Mo.) were added to the pre-treated fish in concentrations from approximately 10 μg/ml reduced in half-logs concentrations down to approximately 10 ng/ml. The embryos were exposed to the compound for approximately 12 hours at 28° C. under normoxic conditions. As a control, pre-treated embryos were incubated in normoxic conditions at 28° C. for the same period of time. After incubation with the compound, the embryos were assessed visually for entry into stasis. […] The Rotenone-treated embryos were removed into fresh medium and incubated at 28° C. under normoxic conditions for 24 hours. The embryos were then assessed visually for the ability to exit stasis.

Row | Compound | viability assessed visually after anoxia (zebrafish embryos [1]; 500 nM, approx. 2 h pre-exposure, 24 hours anoxia at 28° C., then returned to room air) | viability, treated embryos not placed in anoxia (zebrafish embryos [1]; normoxic conditions at 28° C. for 24 hours (control)) | entry into stasis assessed visually (zebrafish embryos [2]; 0.1 μg/ml, approx. 8 hpf embryos, approx. 12 hours at 28° C. under normoxic conditions) | ability to exit stasis assessed visually (zebrafish embryos [2]; embryos removed into fresh medium, 28° C., normoxic conditions for 24 hours)
1 | 1H, 5H, 11H, 15H-Xantheno[2,3,4-ij:5,6,7-i′j′]diquinolizin-18-ium, 9-[4-(chloromethyl)phenyl]-2,3,6,7,12,13,16,17-octahydro-, chloride [M[…]] | not viable | viable | – | –
2 | C=C(C)[C@H]1Cc2c(ccc3c2O[C@@H]2COc4cc(OC)c(OC)cc4[C@@H]2C3=O)O1 [Rotenone] | – | – | enter stasis | reversible stasis inducer
